Test results from patent US20220274983A1, “JAK KINASE INHIBITOR AND USE THEREOF” (JIANGSU CAREPHAR PHARMACEUTICAL CO., LTD., priority 2019, published 2022).

What was measured:
Assay type in all cases: cell-based
THP1 cells = assay: Proliferation inhibition based on THP1 cells (IL-4 stimulation, CTG); conditions: Homo sapiens, THP-1, read-out: IC50 (uM), proliferation inhibitory activity on THP1 cells
Procedure: 1. Cell plating: cultured cells were collected and counted for viable cells with Vi-Cell XR cell counter. The cell suspension was adjusted to an appropriate concentration with the medium and then added to a 96-well cell culture plate. 80 μL of the cell suspension was added to each well of the 96-well cell culture plate. The cell plating density depended on the growth rate of the cells. The cells were cultured in corresponding incubators.
(§1) 2. Drug treatment and IL-4 stimulation: firstly, a series of test compound concentration (work solution-1) was prepared using DMSO with 3× gradient dilution, and then it was subjected to fold dilution with RPMI1640+10% FBS to obtain a work solution-2; Cisplatin's work solution-2 was prepared with RPMI1640+10% FBS, and then 1-10 μL solution taken from the work solution-2 was added to the prepared cell wells containing medium. The cells were cultured in the corresponding incubators. After incubation, 1-10 μL of IL-4 medium was added to each well and continued to culture. An appropriate CTG solution was added to each well.
Cell Survial Rate Calculation
(§2) T is the luminescence reading of a drug treatment group, and C is the average luminescence reading of a solvent control group.

BaF3 cells = assay: Proliferation inhibition based on BaF3 cells (IL-3 medium, CTG); conditions: Mus musculus, medium containing IL-3, read-out: IC50 (uM), proliferation inhibitory activity on BaF3 cells
Procedure: 1. Cell plating: cultured cells were collected with RPMI1640+10% FBS (containing IL-3) medium and counted for viable cells with Vi-Cell XR cell counter. The cell suspension was adjusted to an appropriate concentration with RPMI1640+10% FBS (containing IL-3) medium and then added to a 96-well cell culture plate. A certain amount of cell suspension was added to each well of the 96-well cell culture plate. The cells were cultured in corresponding incubators.
2. Drug treatment: a series of test compound concentration (work solution-1) was prepared using DMSO with 3× gradient dilution, and then it was subjected to fold dilution with RPMI1640+10% FBS (containing IL-3) to obtain a work solution-2; Cisplatin's work solution-2 was prepared with RPMI1640+10% FBS (containing IL-3), and then 1-10 μL solution taken from the work solution-2 was added to the prepared cell wells containing medium. The cells were cultured in the corresponding incubators. An appropriate CTG solution was added to each well.
(§3) Cell Survival Rate Calculation
as §2

Hela cells = assay: Proliferation inhibition based on Hela cells (OSM stimulation, CTG); conditions: Homo sapiens, OSM stimulation, read-out: IC50 (uM), proliferation inhibitory activity on Hela cells
Procedure: 1. Cell plating: cultured cells were collected and counted for viable cells with Vi-Cell XR cell counter. The cell suspension was adjusted to an appropriate concentration with the medium and then added to a 96-well cell culture plate. 50 μL-100 μL of the cell suspension was added to each well of the 96-well cell culture plate. The cell plating density depended on the growth rate of the cells. The cells were cultured in corresponding incubators.
2. Drug Treatment and OSM Stimulation
as §1, with “Firstly,” for “2. Drug treatment and IL-4 stimulation: firstly,”, “medium.” for “medium. The cells were cultured in the corresponding incubators.”, “OSM” for “IL-4”, “well. The mixture was shaken and mixed for 1-5 min and then a luminescence signal was determined with an Envision2104 plate reader.” for “well.”
as §3, §2

Measured: IC50

O=C(Nc1cn2c(-c3ccc(CN4CCS(=O)(=O)CC4)s3)cccc2n1)[C@H]1C[C@@H]1F (relative stereo) [EXP-3, trans-N-[5-[5-[(1,1-dioxo-1,4-thiazin-4-yl)methyl]-2-thiophene]imidazo[1,2-a]pyridin-2-yl]-2-fluoro-cyclopropylcarboxamide]
< 5 µM: all assays above

O=C(Nc1nc2cccc(-c3ccc(CN4CCS(=O)(=O)CC4)s3)n2n1)C1CC1 [EXP-1]
< 5 µM: all assays above
